The values that follow come from article PMC8191380 (Nucleosides, nucleotides & nucleic acids, 2019).

For series [1] the following is noted: cited from earlier work.
Series [2] has as its system HIV. As to conditions: cited from earlier work.
Series [3] has as its system wild-type HBV. The note with it: cited from earlier work.
Series [4] has as its system entecavir-resistant HBV. The note with it: cited from earlier work.
For series [5], the system named is HBV. The note with it: cited from earlier work; for EC50: read-out: anti-HBV activity EC50.
For series [6], the system named is HIV-1. The note with it: cited from earlier work.
Series [7] has as its system HBV. The note with it: read-out: anti-HBV activity EC50; cited from earlier work.
The subject of series [8] is HBV. The series is described as follows: Anti-HBV assay in HBV-producing HepG2 2.2.15 cells. As to conditions: read-out: EC50 (50% effective concentration; concentration that inhibits 50% of virus replication). It counts as cell-based, Hepatitis B virus.
A short description of series [9]: Cytotoxicity in MT-2 cells. Type of series: cell-based. The note with it: human.
In series [10] the test system is MT-2 cells. The series is described as follows: Cytotoxicity in MT-2 cells. It counts as cell-based. As to conditions: for CC50: read-out: CC50 (50% cytotoxic concentration).
The subject of series [11] is HIV. As to conditions: read-out: anti-HIV activity EC50; reported in 1992; cited from earlier work.
Series [12] relates to HBV. The note with it: read-out: anti-HBV activity EC50; cited from earlier work. The source holds these as a separate data set.
The mark [13] stands for this setting: Hepatitis B virus, HepG2 2.2.15, 336 h.
Where [14] appears, read: HepG2 2.2.15 cells, day 14, HBV DNA.

Each structure is given as a SMILES string. Like-named read-outs stand apart in the source and are kept apart here.

As for `[N-]=[N+]=N[C@]1(CO)O[C@@H](n2ccc(N)nc2=O)C[C@@H]1O` [4′-azido-2′-deoxycytidine], in [1], the “cytotoxicity CC25” value was 0.21 µM.

In the case of `N#C[C@]1(CO)O[C@@H](n2cnc3c(=O)[nH]c(N)nc32)C[C@@H]1O` [Compound 1, 4′-cyano-2′-deoxyguanosine], in series [2], the “anti-HIV activity (in words)” value is recorded as “potent anti-HIV activity”. Besides, the “replication of wild-type HBV (in words)” value in [3] is given as “block the replication”. Further, the “replication of entecavir-resistant HBV (in words)” value in series [4] is reported as “block the replication”.

Turning to `N#C[C@]1(CO)O[C@@H](n2cnc3c(N)nc(N)nc32)C[C@@H]1O` [Compound 2, 4′-cyano-2-amino-2′-deoxyadenosine], the “anti-HIV activity (in words)” value in series [2] was “potent anti-HIV activity”. In addition, the “replication of wild-type HBV (in words)” value in series [3] is “block the replication”. In series [4], the “replication of entecavir-resistant HBV (in words)” value is recorded as “block the replication”.

With `[N-]=[N+]=N[C@]1(CO)O[C@@H](n2cnc3c(=O)[nH]c(N)nc32)C[C@@H]1O` [Compound 3, 4′-azido-2′-deoxyguanosine], in series [5], the “potency against HBV (in words)” value is given as “highly potent” and the EC50 is 9.7 nM. In series [6], the “potency against HIV-1 (in words)” value is given as “highly potent”.

As to `[N-]=[N+]=N[C@]1(CO)O[C@@H](n2cnc3c(N)nc(N)nc32)C[C@@H]1O` [Compound 4, 4′-azido-2-amino-2′-deoxyadenosine], in series [5], the “potency against HBV (in words)” value was “highly potent” and the EC50 is 5.1 nM. Further, the “potency against HIV-1 (in words)” value in series [6] was “highly potent”.

On to `[N-]=[N+]=N[C@]1(CO)O[C@@H](n2ccc(N)nc2=O)[C@H](F)[C@@H]1O` [Compound 5, 2′-deoxy-2′-P-fluoro-4′-azido cytidine], for which the EC50 in series [7] is 120 nM.

Take `Cc1cn([C@H]2C[C@H](O)[C@](CO)(N=[N+]=[N-])O2)c(=O)[nH]c1=O` [Compound 6, 4′-azido thymidine]: the values for the EC50 in series [8] (setting [13]) and in [11] were 0.63 ± 0.29 µM and 10 nM, respectively. Further, the CC50 in series [9] is > 100 µM. Also, the “no cytotoxicity up to (concentration)” value in [10] is > 100 µM.

`Cc1cn([C@H]2C[C@H](F)[C@@H](CO)O2)c(=O)nc1N` [Compound 8, FddMeC]: in [12], the EC50 was 540 nM.

`Cc1cn([C@H]2C[C@H](O)[C@](CO)(N=[N+]=[N-])O2)c(=O)nc1N` [Compound 10, 4′-Azido-2′-deoxy-5-methylcytidine]: the EC50 in series [8] (setting [13]) turned out to be 5.99 ± 5.54 µM. Moreover, the CC50 in series [9] is > 100 µM. Also, in series [10], the “no cytotoxicity up to (concentration)” value is > 100 µM.

As to `COc1nc(=O)n(C2CC(O)C(CO)(N=[N+]=[N-])O2)cc1C` (stereo not shown) [Compound 11, 4′-Azido-O^4-methylthymidine], the EC50 in series [8] (setting [14]) was > 100 µM. Moreover, in series [10], the CC50 was > 100 µM.

In the case of `CCOc1nc(=O)n([C@H]2C[C@H](O)[C@](CO)(N=[N+]=[N-])O2)cc1C` [Compound 12, 4′-Azido-O^4-ethylthymidine], the EC50 in series [8] (setting [14]) is > 100 µM. Besides, in series [10], the CC50 was > 100 µM.

For `CNc1nc(=O)n([C@H]2C[C@H](O)[C@](CO)(N=[N+]=[N-])O2)cc1C` [Compound 13, 4′-Azido-2′-deoxy-N4,5-dimethylcytidine], in series [8] (setting [13]), the EC50 was > 100 µM. Besides, in series [9], the CC50 was > 100 µM.

As for `CCNc1nc(=O)n([C@H]2C[C@H](O)[C@](CO)(N=[N+]=[N-])O2)cc1C` [Compound 14, 4′-Azido-2′-deoxy-N^4-ethyl-5-methylcytidine], in series [8] (setting [13]), the EC50 is > 100 µM. Further, the CC50 in [9] is > 100 µM.

On to `Cc1cn([C@H]2C[C@H](O)[C@](CO)(N=[N+]=[N-])O2)c(=O)nc1NC1CC1` [Compound 15, 4′-Azido-N′-cyclopropyl-2′-deoxy-5-methylcytidine], for which the EC50 in series [8] (setting [14]) is > 100 µM. Also, the CC50 in series [10] is > 100 µM.

Turning to `C=C1[C@H](CO)[C@@H](O)C[C@@H]1n1cnc2c(=O)[nH]c(N)nc21` [Entecavir], in series [8] (setting [13]), the EC50 stood at 0.00675 ± 0.000353 µM. In addition, the CC50 in series [9] was found to be 57.2 ± 5.2 µM.
